{"source": "paper PMC2648833", "about": "(Biochemistry, 2008)", "test_in_all_cases": "[…] release, TLC", "type_in_all_cases": "biochemical", "details_in_all_cases": "labelled compound; 1 mM ATP, 2 mM MgCl2, salmon sperm DNA, Tris-HCl pH 8.0, 37 °C", "key": {"[1]": {"target": "UvrD2 (MsmUvrD2), full-length (Mycolicibacterium smegmatis, UniProt A0QTT0, C614A/C617A)"}, "UvrD2-(1-630) (ΔHRDC)": {"target": "UvrD2-(1-630) (ΔHRDC) (Mycolicibacterium smegmatis, UniProt A0QTT0)"}, "[2]": {"target": "UvrD2 (MsmUvrD2), full-length (Mycolicibacterium smegmatis, UniProt A0QTT0)"}}}
{"smiles": "Nc1ncnc2c1ncn2[C@@H]1O[C@H](COP(=O)(O)OP(=O)(O)OP(=O)(O)O)[C@@H](O)[C@H]1O", "note": "[ATP]", "values": [{"measurement": "32Pi release, TLC", "setting": "[1]", "value": "The paired cysteine mutations had no deleterious effect on DNA-dependent ATPase specific activity"}, {"measurement": "32Pi release, TLC", "setting": "UvrD2-(1-630) (ΔHRDC)", "value": "The two proteins displayed virtually identical specific activity for ATP hydrolysis"}, {"measurement": "32Pi release, TLC", "setting": "[2]", "value": "The two proteins displayed virtually identical specific activity for ATP hydrolysis"}]}
